Measured values taken from US8834423B2, “Dissolvable microneedle arrays for transdermal delivery to human skin” (University of Pittsburgh—of the Commonwealth System of …, priority 2009, dated 2014).

System: epidermal cells
Settings: 5 mg/g of CMC, pyramidal array applied 5 minutes, 72 hours of exposure
Protocol: This is a therapeutically relevant concentration based on the area of skin targeted, yet well below levels associated with systemic toxicities. […] Arrays and residual material were removed 5 minutes after application, and after 72 hours of exposure, culture living skin explants were cryo-sectioned and fixed.

Q: How did the “apoptosis (TUNEL) in skin sections” value turn out when `O=P1(N(CCCl)CCCl)NCCCO1` (stereo not shown) [CYTOXAN, cyclophosphamide] was run?
A: extensive apoptosis of epidermal cells
